According to PMC7251097, “Aspartate/asparagine-β-hydroxylase: a high-throughput mass spectrometric assay for discovery of small molecule inhibitors” (Scientific Reports, 2020):
Counter-ions that a name gives are not always drawn. Like-named read-outs stand apart in the source and are kept apart here.

Target: T1, His6-AspH315–758 (human aspartate/asparagine-β-hydroxylase, AspH) (Homo sapiens, UniProt Q12797)
T1 construct: N-Terminally His6-tagged human AspH315–758 (His6-AspH315–758) was produced in E. coli BL21 (DE3) cells; made in house; host or cells: E. coli BL21 (DE3), pET-28a(+) vector
T1 sequence (Q12797 315-758): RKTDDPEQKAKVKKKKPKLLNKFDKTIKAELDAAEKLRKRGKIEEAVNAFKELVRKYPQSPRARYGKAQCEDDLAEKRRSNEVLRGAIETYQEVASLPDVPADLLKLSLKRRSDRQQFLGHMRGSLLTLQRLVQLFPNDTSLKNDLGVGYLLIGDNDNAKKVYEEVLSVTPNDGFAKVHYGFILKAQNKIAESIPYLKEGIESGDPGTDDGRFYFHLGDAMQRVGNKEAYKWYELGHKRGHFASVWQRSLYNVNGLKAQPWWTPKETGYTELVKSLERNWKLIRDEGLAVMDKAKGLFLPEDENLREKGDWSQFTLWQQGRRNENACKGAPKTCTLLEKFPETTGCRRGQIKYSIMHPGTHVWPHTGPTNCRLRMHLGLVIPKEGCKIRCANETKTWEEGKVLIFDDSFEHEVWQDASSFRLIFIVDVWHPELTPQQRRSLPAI
Assay: SPE-MS AspH inhibition assay (LOPAC screen at fixed 20 μM and IC50 dose-response), hydroxylation of cyclic peptide hFX-CP101–119
Assay type: biochemical

[1] = LOPAC compound at fixed 20 uM, plate 1, normalised to DMSO and 2,4-PDCA controls
[2] = LOPAC compound at fixed 20 uM, substrate conversion, plate 1
[3] = LOPAC compound at 20uM, plate 2, conversion of substrate peptide
[4] = LOPAC Plate 4, compound at 20 uM, substrate conversion
[5] = plate 5 (Pfitzer), test compounds at fixed 20 μM
[6] = plate 5 (Pfitzer), test compounds at fixed 20 μM, mean conversion DMSO 32.88
[7] = LOPAC compound at 20uM, plate 2, normalised to DMSO and 2,4-PDCA controls
[8] = LOPAC Plate 4, compound at 20 uM

CC(C)COCC(CN(Cc1ccccc1)c1ccccc1)N1CCCC1 (stereo not shown) [Bepridil hydrochloride]
Plate 1 (% inhibition) [1]: 94.47%
Plate 1 (% conversion) [2]: 4.14%

CC(C)C[C@H](NC(=O)[C@@H](O)[C@H](N)Cc1ccccc1)C(=O)O [Bestatin hydrochloride]
Plate 1 (% inhibition) [1]: -4.72%
Plate 1 (% conversion) [2]: 37.46%

C[N+](C)(C)CC=O [Betaine aldehyde chloride]
Plate 1 (% inhibition) [1]: -3.10%
Plate 1 (% conversion) [2]: 36.91%

C[N+](C)(C)CC(=O)O [Betaine hydrochloride]
Plate 1 (% inhibition) [1]: -4.44%
Plate 1 (% conversion) [2]: 37.36%

C[C@H]1C[C@H]2[C@@H]3CCC4=CC(=O)C=C[C@]4(C)[C@@]3(F)[C@@H](O)C[C@]2(C)[C@@]1(O)C(=O)CO [Betamethasone]
Plate 1 (% inhibition) [1]: -5.12%
Plate 1 (% conversion) [2]: 37.59%

CC(C)NCC(O)COc1ccc(CCOCC2CC2)cc1 (stereo not shown) [Betaxolol hydrochloride]
Plate 1 (% inhibition) [1]: -3.28%
Plate 1 (% conversion) [2]: 36.97%

CC(C[N+](C)(C)C)OC(N)=O (stereo not shown) [Bethanechol chloride]
Plate 1 (% inhibition) [1]: -8.85%
Plate 1 (% conversion) [2]: 38.85%

C=C(c1ccc(C(=O)O)cc1)c1cc2c(cc1C)C(C)(C)CCC2(C)C [Bexarotene]
Plate 2 (% conversion) [3]: 33.95%
inhibition at 20 µM (LOPAC compound at 20uM, plate 2, normalised to DMSO and 2,4-PDCA controls, read-out: Plate 2 (% inhibition)): 6%

CC(O)(CS(=O)(=O)c1ccc(F)cc1)C(=O)Nc1ccc(C#N)c(C(F)(F)F)c1 (stereo not shown) [Bicalutamide (CDX)]
% conversion [4]: 24.70%

OC(CCN1CCCCC1)(c1ccccc1)C1CC2C=CC1C2 (stereo not shown) [Biperiden hydrochloride]
Plate 1 (% inhibition) [1]: -10.34%
Plate 1 (% conversion) [2]: 39.34%

O=C(/C=C/c1ccc(O)cc1)CC(=O)/C=C/c1ccc(O)cc1 [Bisdemethoxycurcumin, reference compound]
inhibition at 20 µM (AspH activity, fixed compound concentration 20 μM, initial LOPAC screen, 0.5%v/v DMSO, read-out: Inhibition at 20 µM [%]): 99.7%

COc1cc(Nc2c(C#N)cnc3cc(OCCCN4CCN(C)CC4)c(OC)cc23)c(Cl)cc1Cl [Bosutinib]
Plate 1 (% inhibition) [1]: -79.17%
Plate 1 (% conversion) [2]: 62.46%
Plate 5 (% inhibition) [5]: -77.35%
Plate 5 (% conversion) [6]: 62.64%

Cc1c(-c2ccc(-c3ccccc3F)cc2)nc2ccc(F)cc2c1C(=O)[O-].[Na+] [Brequinar sodium salt hydrate]
Plate 1 (% inhibition) [1]: 11.82%
Plate 1 (% conversion) [2]: 31.90%

CCN[C@H]1CN(CCCOC)S(=O)(=O)c2sc(S(N)(=O)=O)cc21 [Brinzolamide]
% conversion [4]: 38.63%
inhibition at 20 µM (LOPAC Plate 4, compound at 20 uM, read-out: % inhibition): -6.32%

C=CCc1ccccc1OCC(O)CNC1(C)CCC(C(C)(C)NC(=O)CBr)CC1 (stereo not shown) [Bromoacetyl alprenolol menthane]
Plate 1 (% conversion): 65.73%
Plate 1 (% inhibition): -88.92%

C[N+](C)(C)CCOC(=O)CBr.[Br-] [Bromoacetylcholine bromide]
Plate 1 (% conversion): 36.25%
Plate 1 (% inhibition): -1.12%

CCCC1O[C@@H]2C[C@H]3[C@@H]4CCC5=CC(=O)C=C[C@]5(C)[C@H]4[C@@H](O)C[C@]3(C)[C@]2(C(=O)CO)O1 (stereo partly shown) [Budesonide]
Plate 1 (% inhibition) [1]: -13.14%
Plate 1 (% conversion) [2]: 40.29%

CCCCNc1cc(C(=O)O)cc(S(N)(=O)=O)c1Oc1ccccc1 [Bumetanide]
Plate 1 (% inhibition) [1]: 3.08%
Plate 1 (% conversion) [2]: 34.84%

CC(NC(C)(C)C)C(=O)c1cccc(Cl)c1 (stereo not shown) [Bupropion hydrochloride]
Plate 1 (% conversion): 38.01%
Plate 1 (% inhibition): -6.38%

O=C1CC2(CCCC2)CC(=O)N1CCCCN1CCN(c2ncccn2)CC1 [Buspirone hydrochloride]
Plate 1 (% conversion): 40.40%
Plate 1 (% inhibition) [1]: -13.49%

NC(=O)c1cc(N2CC2)c([N+](=O)[O-])cc1[N+](=O)[O-] [CB 1954]
Plate 1 (% inhibition) [1]: 4.86%
Plate 1 (% conversion) [2]: 34.24%

Clc1nccc2c1ccc1ccccc12 [CBIQ]
Plate 1 (% inhibition) [1]: -13.62%
Plate 1 (% conversion) [2]: 40.45%

CS(=O)(=O)O.Cn1cc(C(F)(F)F)nc1-c1ccc(OCC(O)CNCCOc2ccc(O)c(C(N)=O)c2)cc1 (stereo not shown) [CGP 20712A methanesulfonate]
Plate 2 (% conversion) [3]: 36.56%
Plate 2 (% inhibition) [7]: -1.81%

CC(C)(CO)Cc1cc(C(C)(C)C)c(O)c(C(C)(C)C)c1 [CGP-7930]
Plate 1 (% inhibition) [1]: -11.33%
Plate 1 (% conversion) [2]: 39.68%

CC(C)(C=O)Cc1cc(C(C)(C)C)c(O)c(C(C)(C)C)c1 [CGP-13501]
Plate 1 (% inhibition) [1]: 0.58%
Plate 1 (% conversion) [2]: 35.68%

CCn1cnc2c(Nc3cccc(Cl)c3)nc(N[C@@H]3CCCC[C@@H]3N)nc21.Cl [CGP-74514A hydrochloride]
Plate 1 (% conversion): 10.02%
Plate 1 (% inhibition): 76.98%

COc1ccc(OCC2c3cc(OC)c(OC)cc3CCN2C(=O)c2cccc(Cl)c2)cc1 (stereo not shown) [CIQ]
% conversion [4]: 36.09%

N#Cc1cc2nc([O-])c([O-])nc2cc1[N+](=O)[O-].[Na+].[Na+] [CNQX disodium]
Plate 2 (% conversion) [3]: 39.74%
Plate 2 (% inhibition) [7]: -11.30%

CCc1cccc(N(C)C(N)=Nc2cccc3ccccc23)c1 [CNS-1102]
Plate 1 (% inhibition) [1]: -9.21%
Plate 1 (% conversion) [2]: 38.96%

COc1ccc(/C=C/c2nc(NCCCN(C)C)c3ccccc3n2)cc1.Cl.Cl.O [CP-31398 dihydrochloride hydrate]
% conversion [4]: 42.00%

COc1ccc(/C=C/c2nc(NCCCN(C)C)c3ccccc3n2)cc1 [CP-31398]
Plate 5 (% conversion): 45.27%
Plate 5 (% inhibition): -26.30%

CN[C@@H]1CC[C@@H](c2ccc(Br)cc2)c2ccccc21.Cl [CP-53631]
Plate 5 (% conversion): 37.76%
Plate 5 (% inhibition): -4.23%

CC[C@H]1OC(=O)[C@H](C)[C@@H](O[C@H]2C[C@@](C)(OC)[C@@H](O)[C@H](C)O2)[C@H](C)[C@@H](O[C@@H]2O[C@H](C)C[C@H](NC)[C@H]2O)[C@](C)(O)C[C@@H](C)CN(C)[C@H](C)[C@@H](O)[C@]1(C)O [CP-64434]
Plate 5 (% conversion): 37.11%
Plate 5 (% inhibition): -2.34%

Nc1nc2ccc(Cl)cc2n2c(-c3ccccc3)nnc12 [CP-66713]
Plate 3 (% conversion): 39.27%
Plate 5 (% conversion): 29.84%
Plate 5 (% inhibition): 19.04%

CN(C)C(=O)[C@H](O)[C@H](Cc1ccccc1)NC(=O)c1cc2cc(Cl)ccc2[nH]1 [CP-91149]
Plate 2 (% conversion): 37.12%
Plate 5 (% conversion): 35.66%
Plate 5 (% inhibition): 1.91%
Plate 2 (% inhibition) (20 µM): -3.47%

Cl.Cl.O=c1ccc2[nH]cc(C3=CCNCC3)c2[nH]1 [CP-93129 dihydrochloride hydrate]
% conversion: 37.25%
% inhibition [8]: -2.28%

O=c1ccc2[nH]cc(C3=CCNCC3)c2[nH]1 [CP-93129]
Plate 5 (% conversion): 38.32%
Plate 5 (% inhibition): -5.90%

COc1ccccc1CN[C@@H]1CCCN[C@@H]1c1ccccc1.Cl.Cl.O [CP-100263 dihydrochloride hydrate]
% inhibition [8]: -15.48%
% conversion [4]: 41.75%

COc1ccccc1CN[C@H]1CCCN[C@H]1c1ccccc1 [CP-100263]
Plate 5 (% conversion): 33.08%
Plate 5 (% inhibition): 9.51%

CC(C)(C)OC(=O)NC1[C@H]2CNC[C@@H]12 (stereo partly shown) [CP-101537]
Plate 3 (% conversion): 33.25%
Plate 5 (% conversion): 36.34%
Plate 5 (% inhibition): -0.06%

CN1CCC[C@@H]1Cc1c[nH]c2ccc(Nc3ncccc3[N+](=O)[O-])cc12 [CP-135807]
% conversion: 37.42%
Plate 5 (% conversion): 32.28%
Plate 5 (% inhibition): 11.85%

CCCCN(CC)c1nc(C)nc2c1c(C)cn2-c1c(C)cc(C)cc1C.Cl [CP-154526 hydrochloride]
Plate 3 (% conversion) (LOPAC compound at 20uM, plate 3, conversion of substrate peptide): 39.02%

CCCCN(CC)c1nc(C)nc2c1c(C)cn2-c1c(C)cc(C)cc1C [CP-154526]
Plate 5 (% inhibition) [5]: -9.05%
Plate 5 (% conversion) [6]: 39.39%
